Converted amounts (≈) assume the structure as drawn.
Assays:
[1] = tested on: K562/adr (drug-resistant, chronic myeloid leukemia, CML); assay: MTT cell growth inhibition, K562/adr leukemia cells, 72 h; type: cell-based; settings: Homo sapiens, K562/Adr
Protocol: (§1) The standard sample of tanshinone I (TA) and the 2-alkyl- or 2-aromatic-substituted tanshinone I derivatives of the present invention are sufficiently dissolved in dimethylsulfoxide to produce a stock solution of 10 mg/mL, which is refrigerated at 4° C. and stored in dark, and is diluted with cell culture medium to a desired concentration prior to experimentation.
(§2) Obtaining 6000 well-growing leukemia cells and inoculating them into wells of a 96-well cell culture plate. The culture medium is the RPMI-1640 cell culture medium containing 10% fetal bovine serum. After adding on the second day the 2-alkyl- or 2-aromatic-substituted tanshinone I derivatives of different concentrations and mixing uniformly, placing the plate in a carbon dioxide cell incubator (5% CO2) at 37° C. and incubated for 72 hours. Then the viable cell concentration is determined by MTT method. In this experiment, the cell viability in control group (not treated with any compound) is set as 100%, and the cell viability (%) after treatment by the compounds and the half maximum inhibitory concentration for the leukemia cell at 72 hours (IC50 value of 72 hours, μg/mL) are calculated.

[2] = tested on: PC-3 (prostate cancer); assay: MTT cell growth inhibition, PC-3 cells, 72 h; type: cell-based, human; settings: Homo sapiens, PC-3, 72 h
Protocol: as §1, with “with a” for “with”, “to the” for “to a”
(§3) Obtaining 6000 well-growing human solid tumor cells and inoculating them into wells of a 96-well cell culture plate. The culture medium is DMEM High Glucose cell culture medium containing 10% fetal bovine serum. The plate is placed in a carbon dioxide cell incubator (5% CO2) at 37° C. and incubated for 24 hours. After adding the 2-alkyl- or 2-aromatic-substituted tanshinone I derivatives of different concentrations and mixing uniformly, the plate is placed in a carbon dioxide cell incubator (5% CO2) at 37° C. and incubated for 72 hours. Then the viable cell concentration is determined by MTT method. In this experiment, the cell viability in control group (not treated with any compound) is set as 100%, and the cell viability (%) after treatment by the compounds and the half maximum inhibitory concentration for the leukemia cell at 72 hours (IC50 value of 72 hours, μg/mL) are calculated.

[3] = tested on: CNE (nasopharyngeal carcinoma cell); assay: MTT cell growth inhibition, CNE cells, 72 h; type: cell-based, human
Protocol: as §1, with “with a” for “with”, “to the” for “to a”
as §3

[4] = tested on: RKO (human colon adenocarcinoma cell); assay: MTT cell growth inhibition, RKO cells, 72 h; type: cell-based
Protocol: as §1, with “with a” for “with”, “to the” for “to a”
as §3

[5] = tested on: NB4 (acute promyelocytic leukemia, AML); assay: MTT cell growth inhibition, NB4 leukemia cells, 72 h; type: cell-based; settings: NB4, 72 h
Protocol: as §1, §2

[6] = tested on: CaES-17 (esophageal cancer cell); assay: MTT cell growth inhibition, CaES-17 cells, 72 h; type: cell-based, human; settings: Homo sapiens, CaEs17, CaEs-17, 72 h
Protocol: as §1, with “with a” for “with”, “to the” for “to a”
as §3

[7] = tested on: Jurkat (acute lymphoblastic leukemia, ALL); assay: MTT cell growth inhibition, Jurkat leukemia cells, 72 h; type: cell-based
Protocol: as §1, §2

[8] = tested on: H9 (acute lymphoblastic leukemia, ALL); assay: MTT cell growth inhibition, H9 leukemia cells, 72 h; type: cell-based; settings: H9, 72 h
Protocol: as §1, §2

[9] = tested on: Hep G2 (human liver cancer cell); assay: MTT cell growth inhibition, Hep G2 cells, 72 h; type: cell-based
Protocol: as §1, with “with a” for “with”, “to the” for “to a”
as §3

[10] = tested on: RPMI8226 (multiple myeloma); assay: MTT cell growth inhibition, RPMI8226 multiple myeloma cells, 72 h; type: cell-based, human
Protocol: as §1, §2

[11] = tested on: SK-OV-3 (ovarian cancer cell); assay: MTT cell growth inhibition, SK-OV-3 cells, 72 h; type: cell-based, human
Protocol: as §1, with “with a” for “with”, “to the” for “to a”
as §3

[12] = tested on: MGC 803 (human gastric cancer cell); assay: MTT cell growth inhibition, MGC 803 cells, 72 h; type: cell-based; settings: Homo sapiens, MGC-803, 72 h
Protocol: as §1, with “with a” for “with”, “to the” for “to a”
as §3

[13] = tested on: Hela (human cervical cancer cell); assay: MTT cell growth inhibition, Hela cells, 72 h; type: cell-based
Protocol: as §1, with “with a” for “with”, “to the” for “to a”
as §3

[14] = tested on: A549 (human lung cancer); assay: MTT cell growth inhibition, A549 cells, 72 h; type: cell-based; settings: Homo sapiens, A549, 72 h
Protocol: as §1, with “with a” for “with”, “to the” for “to a”
as §3

[15] = tested on: Hep-2 (laryngeal carcinoma); assay: MTT cell growth inhibition, Hep-2 cells, 72 h; type: cell-based, human; settings: Homo sapiens, HEp-2, 72 h
Protocol: as §1, with “with a” for “with”, “to the” for “to a”
as §3

[16] = tested on: Kasumi-1 (acute myeloid leukemia M2 type, AML-M2); assay: MTT cell growth inhibition, Kasumi-1 leukemia cells, 72 h; type: cell-based; settings: Homo sapiens, Kasumi-1, 72 h
Protocol: as §1, §2

[17] = tested on: MG63 (osteosarcoma); assay: MTT cell growth inhibition, MG63 cells, 72 h; type: cell-based, human; settings: Homo sapiens, MG-63, 72 h
Protocol: as §1, with “with a” for “with”, “to the” for “to a”
as §3

[18] = tested on: PANC-1 (pancreatic cancer); assay: MTT cell growth inhibition, PANC-1 cells, 72 h; type: cell-based, human; settings: Homo sapiens, PANC-1, 72 h
Protocol: as §1, with “with a” for “with”, “to the” for “to a”
as §3

[19] = tested on: Becap37 (human breast cancer cell); assay: MTT cell growth inhibition, Becap37 cells, 72 h; type: cell-based
Protocol: as §1, with “with a” for “with”, “to the” for “to a”
as §3

[20] = tested on: U87 MG (malignant glioma cell); assay: MTT cell growth inhibition, U87 MG cells, 72 h; type: cell-based, human
Protocol: as §1, with “with a” for “with”, “to the” for “to a”
as §3

- IC50 ([1]; read-out: IC50): 1.36 µg/mL (≈ 3.07 µM)
- IC90 ([1]; read-out: IC90): 7.61 µg/mL (≈ 17.2 µM)
- IC50 ([2]; read-out: IC50): 9.94 µg/mL (≈ 22.5 µM)
- IC90 ([2]; read-out: IC90): > 16 µg/mL
- IC50 ([3]; Homo sapiens, CNE, 72 h, read-out: IC50): 3.2 µg/mL (≈ 7.23 µM)
- IC90 ([3]; Homo sapiens, CNE, 72 h, read-out: IC90): 45 µg/mL (≈ 102 µM)
- IC50 ([4]; Homo sapiens, RKO, 72 h, read-out: IC50): 0.87 µg/mL (≈ 1.97 µM)
- IC90 ([4]; Homo sapiens, RKO, 72 h, read-out: IC90): 26.6 µg/mL (≈ 60 µM)
- IC50 ([5]; read-out: IC50): 0.31 µg/mL (≈ 0.701 µM)
- IC90 ([5]; read-out: IC90): 3.22 µg/mL (≈ 7.28 µM)
- IC50 ([6]; read-out: IC50): 3.78 µg/mL (≈ 8.54 µM)
- IC90 ([6]; read-out: IC90): > 16 µg/mL
- IC50 ([7]; Homo sapiens, 72 h, read-out: IC50): 0.48 µg/mL (≈ 1.08 µM)
- IC90 ([7]; Homo sapiens, 72 h, read-out: IC90): > 16 µg/mL
- IC50 ([8]; read-out: IC50): 3 µg/mL (≈ 6.78 µM)
- IC90 ([8]; read-out: IC90): > 16 µg/mL
- IC50 ([9]; Homo sapiens, HepG2, Hep G2, 72 h, read-out: IC50): 2.09 µg/mL (≈ 4.72 µM)
- IC90 ([9]; Homo sapiens, HepG2, Hep G2, 72 h, read-out: IC90): 16.3 µg/mL (≈ 36.9 µM)
- IC50 ([10]; Homo sapiens, RPMI 8226, 72 h, read-out: IC50): 0.58 µg/mL (≈ 1.31 µM)
- IC90 ([10]; Homo sapiens, RPMI 8226, 72 h, read-out: IC90): 16.2 µg/mL (≈ 36.6 µM)
- IC50 ([11]; Homo sapiens, SK-OV-3, 72 h, read-out: IC50): 11.7 µg/mL (≈ 26.5 µM)
- IC90 ([11]; Homo sapiens, SK-OV-3, 72 h, read-out: IC90): > 16 µg/mL
- IC50 ([12]; read-out: IC50): 1.74 µg/mL (≈ 3.93 µM)
- IC90 ([12]; read-out: IC90): 16 µg/mL (≈ 36.2 µM)
- IC50 ([13]; Homo sapiens, HeLa, 72 h, read-out: IC50): 1.07 µg/mL (≈ 2.42 µM)
- IC90 ([13]; Homo sapiens, HeLa, 72 h, read-out: IC90): 24 µg/mL (≈ 54.3 µM)
- IC50 ([14]; read-out: IC50): 6.68 µg/mL (≈ 15.1 µM)
- IC90 ([14]; read-out: IC90): 25.9 µg/mL (≈ 58.5 µM)
- IC50 ([15]; read-out: IC50): 5.27 µg/mL (≈ 11.9 µM)
- IC90 ([15]; read-out: IC90): > 16 µg/mL
- IC50 ([16]; read-out: IC50): 0.97 µg/mL (≈ 2.19 µM)
- IC90 ([16]; read-out: IC90): 31.1 µg/mL (≈ 70.3 µM)
- IC50 ([17]; read-out: IC50): 1.62 µg/mL (≈ 3.66 µM)
- IC90 ([17]; read-out: IC90): 7.44 µg/mL (≈ 16.8 µM)
- IC50 ([18]; read-out: IC50): 7.34 µg/mL (≈ 16.6 µM)
- IC90 ([18]; read-out: IC90): 24.1 µg/mL (≈ 54.5 µM)
- IC50 ([19]; Homo sapiens, Becap-37, 72 h, read-out: IC50): 1.99 µg/mL (≈ 4.5 µM)
- IC90 ([19]; Homo sapiens, Becap-37, 72 h, read-out: IC90): 7.83 µg/mL (≈ 17.7 µM)
- IC50 ([20]; Homo sapiens, U-87 MG, U87-MG, 72 h, read-out: IC50): 2.85 µg/mL (≈ 6.44 µM)
- IC90 ([20]; Homo sapiens, U-87 MG, U87-MG, 72 h, read-out: IC90): 15.4 µg/mL (≈ 34.9 µM)
SMILES: Cc1c(-c2ccc(OCC(O)CO)cc2)oc2c1C(=O)C(=O)c1c-2ccc2c(C)cccc12 (stereo not shown) [BS-TA-301]
- anti-CNE activity (in words) ([3]; Table 2): good antitumor activity
- anti-RKO activity (in words) ([4]; Table 2): superior to that of tanshinone I per se
- improvement of anti-Jurkat activity as compared with tanshinone I per se ([7]; vs tanshinone I): more than 3 fold
- anti-Hep G2 activity (in words) ([9]; Table 2): superior to that of tanshinone I per se
- anti-RPMI8226 cell line activity (in words) ([10]; as compared with tanshinone I per se): improves the anti-RPMI8226 cell line activity significantly
- anti-SK-OV-3 activity (in words) ([11]; Table 2): superior to that of tanshinone I per se
- anti-Hela activity (in words) ([13]; Table 2): superior to that of tanshinone I per se
- anti-Becap37 activity (in words) ([19]; Table 2): superior to that of tanshinone I per se
- anti-U87 MG activity (in words) ([20]; Table 2): superior to that of tanshinone I per se
